This is an account of results in patent US9145408B2 (priority 2008, dated 2015).

Where a name gives a salt, the structure may show the parent alone.

Data set [1] relates to FCA-induced thermal hyperalgesia. As to the kind of experiment: FCA model of inflammatory pain, thermal hyperalgesia. It is filed as in vivo. To be noted: rat FCA model. How it is done: (§1) Test Animals: Each experiment used rats weighing between 200-260 g at the start of the experiment. The rats were group-housed and had free access to food and water at all times, except prior to oral administration of a Substituted-Quinoxaline-Type Bridged-Piperidine Compound when food was removed for 16 hours before dosing. A control group acted as a comparison to rats treated with a Substituted-Quinoxaline-Type Bridged-Piperidine Compound. The control group was administered the carrier for the Substituted-Quinoxaline-Type Bridged-Piperidine Compound. The volume of carrier administered to the control group was the same as the volume of carrier and Substituted-Quinoxaline-Type Bridged-Piperidine Compound administered to the test group.
Inflammatory Pain: To assess the actions of a Substituted-Quinoxaline-Type Bridged-Piperidine Compound for the treatment or prevention of inflammatory pain, the Freund's complete adjuvant (“FCA”) model of inflammatory pain was used. […] The left hind paw of each animal was administered a 50 μL intraplantar injection of 50% FCA. 24 hour post injection, the animal was assessed for response to noxious mechanical stimuli by determining the PWT, or to noxious thermal stimuli by determining the PWL, as described below. […] Responses to noxious mechanical stimuli were then determined 1, 3, 5 and 24 hours post administration. Percentage reversal of hyperalgesia for each animal was defined as: […]
Response to Thermal Stimuli as an Assessment of Thermal Hyperalgesia: The plantar test can be used to assess thermal hyperalgesia. For this test, hind paw withdrawal latencies (PWL) to a noxious thermal stimulus were determined using a plantar test apparatus (commercially available from Ugo Basile of Italy) following the technique described by K. Hargreaves et al., “A New and Sensitive Method for Measuring Thermal Nociception in Cutaneous Hyperalgesia,” Pain 32(1):77-88 (1988). The maximum exposure time was set at 32 seconds to avoid tissue damage and any directed paw withdrawal from the heat source was taken as the end point. Three latencies were determined at each time point and averaged. Either only the affected (ipsilateral) paw was tested, or both the ipsilateral and contralateral (non-injured) paw were tested.

Data set [2] can be described thus: abnormal behavioral side effects (sedation, hyperactivity, hypoactivity). As to conditions: in vivo.
In data set [3] the test system is nerve injury-induced mechanical hyperalgesia. As to the kind of experiment: Seltzer partial sciatic nerve ligation model of neuropathic pain, mechanical hyperalgesia. It is filed as in vivo. To be noted: rat Seltzer model, 3 mg/kg. Here is the method:
as §1
Partial ligation of the left sciatic nerve was performed under isoflurane/O2 inhalation anesthesia. Following induction of anesthesia, the left thigh of the rat was shaved and the sciatic nerve exposed at high thigh level through a small incision and was carefully cleared of surrounding connective tissues at a site near the trocanther just distal to the point at which the posterior biceps semitendinosus nerve branches off of the common sciatic nerve. A 7-0 silk suture was inserted into the nerve with a ⅜ curved, reversed-cutting mini-needle and tightly ligated so that the dorsal ⅓ to ½ of the nerve thickness was held within the ligature. The wound was closed with a single muscle suture (4-0 nylon (Vicryl)) and vetbond tissue glue. Following surgery, the wound area was dusted with antibiotic powder. Sham-treated rats underwent an identical surgical procedure except that the sciatic nerve was not manipulated. Following surgery, animals were weighed and placed on a warm pad until they recovered from anesthesia. Animals were then returned to their home cages until behavioral testing began. The animals were assessed for response to noxious mechanical stimuli by determining PWT, as described below, prior to surgery (baseline), then immediately prior to and 1, 3, and 5 hours after drug administration for rear paw of the animal. Percentage reversal of neuropathic hyperalgesia was defined as: […]
Response to Mechanical Stimuli as an Assessment of Mechanical Hyperalgesia: The paw pressure assay was used to assess mechanical hyperalgesia. For this assay, hind paw withdrawal thresholds (PWT) to a noxious mechanical stimulus were determined using an analgesymeter (Model 7200, commercially available from Ugo Basile of Italy) as described in C. […] The maximum weight that could be applied to the hind paw was set at 250 g and the end point is taken was complete withdrawal of the paw. PWT was determined once for each rat at each time point and either only the affected (ipsilateral) paw was tested, or both the ipsilateral and contralateral (non-injured) paw were tested.

The target in data set [4] is hERG (human ether a-go-go gene) (Homo sapiens (Human), UniProt Q12809). The data set can be described thus: cardiovascular side effects: in vitro hERG assay and APD in guinea pig purkinje fibers. To be noted: in vitro hERG assay; APD in guinea pig purkinje fibers. It is filed as cell-based. How it is done:
These side effects were determined using known methods: an in vitro hERG (human ether a-go-go gene) assay as disclosed in Z. Zhou et al., “Properties of HERG Channels Stably Expressed in HEK 293 Cells Studied at Physiological Temperature,” Biophysical J. 74:230-241 (1998); and APD (action potential duration) in guinea pig purkinje fibers as disclosed in J. A. Hey, “The Guinea Pig Model for Assessing Cardiotoxic Proclivities of Second Generation Antihistamines,” Arzneimittelforschung 46(8):834-837 (1996).

Setting [5] is: 5 mg/kg dose, 3 hours after administration.
Where [6] appears, read: 5 mg/kg dose, 5 hours after administration.

Consider `O=C(O)c1nc2ccccc2n([C@H]2C[C@H]3CC[C@@H](C2)N3C2CCCCCCCCCC2)c1=O` [Compound 358], for which the “% reversal of thermal hyperalgesia” value is 34% in data set [1] (5 mg/kg dose, 1 hour after administration); 46% in data set [1] (setting [5]); 79% in data set [1] (setting [6]). The “abnormal behavioral side effects, such as sedation, hyperactivity and/or hypoactivity” value (“abnormal behavioral side effects, such” below) in data set [2] is listed as “reduced abnormal behavioral side effects”.

Take `O=C(O)c1nc2ccccc2n([C@H]2C[C@H]3CC[C@@H](C2)N3[C@H]2C[C@@H]3CCC[C@@H](C3)C2)c1=O` [Compound 361, 4-((endo)-8-((exo)-bicyclo[3.3.1]nonan-3-yl)-8-azabicyclo[3.2.1]octan-3-yl)-3-oxo-3,4-dihydroquinoxaline-2-carboxylic acid]: the “% reversal of thermal hyperalgesia” value in data set [1] (setting [5]) is 90%; in data set [1] (setting [6]) it was 70%. Further, the “abnormal behavioral side effects, such” value in data set [2] is reported as “reduced abnormal behavioral side effects”.

With `O=C(O)c1nc2ccccc2n([C@H]2C[C@H]3CCC[C@@H](C2)N3C2CC3CCCC(C3)C2)c1=O` (stereo partly drawn) [Compound 362, 4-((endo)-9-((exo)-bicyclo[3.3.1]nonan-3-yl)-9-azabicyclo[3.3.1]nonan-3-yl)-3-oxo-3,4-dihydroquinoxaline-2-carboxylic acid], the “% reversal of thermal hyperalgesia” value in data set [1] (3 mg/kg dose, 1 hour after administration) was found to be 86%; in data set [1] (3 mg/kg dose, 3 hours after administration), 51%; in data set [1] (3 mg/kg dose, 5 hours after administration), 27%. In addition, the “ED50 value for reversal of thermal hyperalgesia” value in data set [1] (1 hour after administration) stood at 0.8 mg/kg; in data set [1] (3 hours after administration) it was 1.5 mg/kg; in data set [1] (5 hours after administration), 3.0 mg/kg. For the same compound, the “% reversal of mechanical hyperalgesia” value in data set [3] (1 hour after administration) is reported as 60%; in data set [3] (3 hours after administration) it was 60%; in data set [3] (5 hours after administration), 50%; in data set [3] (7 hours after administration), 40%. Further, the “abnormal behavioral side effects, such” value in data set [2] is “reduced abnormal behavioral side effects”. Besides, the cardiovascular side effects result in data set [4] was “reduced cardiovascular side effects”.

On to `C[C@@H]1C[C@@H]2C[C@H](C1)C[C@@H](N1[C@@H]3CCC[C@H]1C[C@@H](n1c(=O)c(C(=O)O)nc4ccccc41)C3)C2` [Compound 405, (exo, endo, endo)-4-(9-(7-methylbicyclo[3.3.1]nonan-3-yl)-9-azabicyclo[3.3.1]nonan-3-yl)-3-oxo-3,4-dihydroquinoxaline-2-carboxylic acid potassium salt], for which the “% reversal of mechanical hyperalgesia” value in data set [3] (1 hour after administration), in data set [3] (3 hours after administration) and in data set [3] (5 hours after administration) was 70% in each case.
